Entries after “also recorded” stand apart in the source; their conditions may differ. Where no end group is shown, it is not given here.
What was measured:
[1] = system: vessels in human xenograft PC-3 (prostate carcinoma) tumors; experiment: in vivo binding of intravenously injected peptide in PC-3 tumor-bearing mice (fluorescence microscopy of frozen sections); set-up: species or system mouse; conditions: for binding to vessels in the tumors (tumor cross-sections): five i.v. (tail vein) injections of 1 ng/mouse at one hour intervals
Method: (§1) Additionally, in vivo experiments with the prototype peptide, SEQ ID NO 3, which stained the brightest in the in vitro experiments described above, were conducted using several different assays as described below. In one in vivo assay, tumor-bearing mice were injected five times intravenously (tail vein) with 1 ng/mouse at one hour intervals. The mice were sacrificed 15 minutes after the final injection, the tumors and other normal tissues (lung, heart, muscle) were taken for fresh frozen sectioning (i.e., embedded in OCT medium and frozen) and for evaluation via fluorescence microscopy. […] Although these peptides were generated from TDEC originating from the murine SCC tumor, SEQ ID NO 3 also bound to the endothelium from a human xenograft model.
The specificity of SEQ ID NO 3 for endothelial vessels is illustrated in FIG. 7. In this experiment, PC-3 tumor-bearing mice were injected (as described above) with positive control poly-L-lysine, negative control SEQ ID NO 8 Pen G7 and peptide SEQ ID NO 3. FIG. 7A, 7B and 7C are micrographs illustrating cross-sections of PC-3 tumor from tumor-bearing mice that were injected with peptides. In each figure, the gray diamond indicates the location of the lumen of the blood vessel.

[2] = system: human soft tissue sarcoma and prostate carcinoma tumor sections (endothelium); experiment: triple staining of fresh frozen human tumor sections with FITC-tagged peptide, anti-Factor VIII antibody and nuclear stain; format: binding; conditions: fresh frozen sections snap fixed in paraformaldehyde
Method: The ability of novel peptide motifs of the present invention to cross-react with tissues from different sources was tested using human samples from a pathologist-diagnosed soft tissue sarcoma and a prostate carcinoma. Fresh frozen tumor sections were snap fixed in paraformaldehyde, and then triple stained for fluorescence microscopic analysis, the results of which are shown in FIG. 8. The staining included: a stain for cell nuclei, and anti-Factor VIII antibody (secondary antibody labeled with Cy3 red fluorescent probe), and peptide SEQ ID NO 3 (tagged with FITC, green upon fluorescence). […] Factor VIII staining is specific for endothelial cells which produce and store the Factor VIII blood factor.

[3] = system: tumor-derived endothelial cells (TDEC); experiment: in vitro binding of FITC-conjugated peptides to TDEC monolayers (fluorescent microscopy), NIH3T3 as negative control monolayer; format: cell-based, mouse; conditions: peptide 5 μg/ml overnight at 37° C. in PBS with 10% FCS; TDEC vs NIH3T3 monolayers
Method: Tumors were established by subcutaneous injection of 5×10^6 SCC VII cells per C3H/HeJ mouse. After a tumor had achieved a diameter of 0.5 cm to 1.0 cm and before any evidence of central necrosis, it was removed sterilely, minced, and digested with collagenases and RNAses to yield a single cell suspension. The cells were then stained using antibody for PECAM-1. The stained cells were sorted using automated flow cytometry and the positive cells were cultured as TDECs in Po Media [DMEM supplemented with 20% Sarcoma-180 conditioned media, 10% Fetal Calf Serum, 1% BME vitamin, 1% heparin, and 0.005% endothelial cell growth supplement (Collaborative Research)].
Evidence for specific binding of oligopeptides to TDEC was accomplished as follows. The most frequently repetitive sequences obtained from the 100 clones were used for synthesis of oligopeptides (Sigma Genesis). By conjugating fluorescein isothiocynate ([…]) to the carboxyl termini of peptides, these molecules were tested for in vitro binding with TDECs and NIH3T3 cells (negative control cell line). These peptides contained flanking cysteines so that a disulfide loop may be reformed, thus constraining and mimicking the binding condition of the initial selection process. […]

[4] = system: vessels in murine SCC (squamous cell) tumors; experiment: in vivo binding of intravenously injected peptide in tumor-bearing mice, murine SCC tumor model (fluorescence microscopy of frozen sections); set-up: species or system mouse
Method: as §1

poly-L-lysine [reference compound]
binding to vessels in the tumors (tumor cross-sections) [1]: not only bound to the cells of the blood vessel, but also diffused through the intercellular space

CGGRRLGGC (cysteine pairing not given here) [SEQ ID NO 3]
staining of human tumor sections relative to Factor VIII-positive (vascularized) regions [2]: observed primarily in the regions of the tissue that were vascularized | staining / binding specificity of FITC-labeled peptide for TDEC [3]: brightest staining and specificity for TDEC; also recorded: highest in vitro binding specificity to TDEC | distribution of staining in PC-3 tumor cross-section ([1]; after i.v. injection, FIG. 7C): limited to the blood vessel wall | binding to vessels in the tumors (tumor cross-sections) [1]: preferential binding; also recorded: intense binding to the cells of the vessel | binding to vessels of normal tissues ([1]; lung, heart, muscle, five i.v. injections of 1 ng/mouse): no binding to the vessels of normal tissues | binding to vessels of normal tissues ([4]; murine SCC tumor-bearing mice, lung, heart, muscle, five i.v. injections of 1 ng/mouse): no binding to the vessels of normal tissues | binding to vessels in the tumors ([4]; murine SCC tumor, five i.v. (tail vein) injections of 1 ng/mouse at one hour intervals, sacrifice 15 minutes after final injection): preferential binding

CGGRKLGGC (cysteine pairing not given here) [SEQ ID NO 2]
staining / binding specificity of FITC-labeled peptide for TDEC [3]: preferential staining for TDEC; also recorded: some binding specificity to TDEC

CGGGGGGGC (cysteine pairing not given here) [SEQ ID NO 8 Pep G7, negative control peptide, seven glycine residues flanked by cysteines, reference compound]
binding to vessels in the tumors (tumor cross-sections) [1]: no binding activity

From patent publication US6974791B2, “Endothelial specific targeting” (The University of Pittsburgh, priority 2000, dated 2005)
